Laboratory results published in patent publication US20220409637A1, “COVID-19 THERAPEUTICS AND METHODS OF TREATMENT” (priority 2020, published 2022).

What was measured:
[1] = system: ACE2; experiment: Externalization of ACE2 on cell surface, anti-human ACE2 antibody / horseradish peroxidase staining (FIG. 2); format: cell-based; details: human brain endothelial cells, 10 mM Diminazene for 3 hours, n=4
Experimental: FIG. 2 is a graph of externalization of ACE2 on cell surface after treatment with diminazene. The inventors cultured human brain endothelial cells to confluency and exposed these cells to 10 mM Diminazene for 3 hours after which they were fixed in 3.7% phosphate buffered formaldehyde for 30 mins. Cells were then incubated in 1:250 rabbit antibhuman ACE2 (overnite) followed by washes and then goat anti rabbit horseradish peroxidase (1 h).

[2] = system: viral infection of ACE2 expressing cell monolayers (WT spike); experiment: Infectivity of ACE2 expressing cell monolayers by virus (WT spike) (FIGS. 3-6); format: cell-based; details: for infectivity of cells: concentrations between 1 mM and 0.01 mM
Experimental: This is equivalent to a high dose of 515 mg/kg (1 mM) to the lowest dose of 5.15 mg/kg (0.01 mM). Assuming 100% biological distribution in a 70 kg human, 10^-4M is a dose of 3.5 g and 10^-5M is 350 mg.
This is equivalent to a high dose of 515 mg/kg (1 mM) to the lowest dose of 5.15 mg/kg.

[3] = LD50; format: in vivo; details: 70 kg human
[4] = in vivo; cited from earlier work
[5] = system: T. congolense-infected mice; details: cited from earlier work
[6] = system: ACE2; format: cell-based

SMILES	average ACE2 signal on cell surface of treated monolayers [1]	infectivity of cells ([2]; infectious ratio 1:100 viruses per cell, FIG. 3)	infectivity of cells ([2]; infectious ratio 5:100 viruses per cell, FIG. 4)	infectivity of cells ([2]; infectious ratio 10:100 viruses per cell, FIG. 5)	LD50 as total dose [3] [grams]	LD50 [4] [mg/kg]	serum pro-inflammatory cytokine levels [5]	externalization of ACE2 [6]	ACE2-mediated binding and signal of VSV virus-expressing COVID-spike protein in target cells ([6]; target cells, FIG. 1)	infectivity of cells expressing WT spike (amount of green signal produced by viral infection) ([2]; ACE2 expressing cell monolayers, infectious ratio 5:100 viruses per cell, 1 mM to 0.01 mM, FIG. 6)
N=C(N)c1ccc(/N=N/Nc2ccc(C(=N)N)cc2)cc1 [Diminazene, 4,4′-(1-Triazene-1,3-diyl) bis(benzenecarboximidamide)]	increased average signal in treated monolayers consistent with externalization of ACE2 on the cell surface	dose-dependent reduction in the infectivity of cells	dose-dependent reduction in the infectivity of cells	dose-dependent reduction in the infectivity of cells	~24	~350	reduces serum pro-inflammatory cytokine levels	–	–	–
CC(=O)NCC(=O)O.CC(=O)NCC(=O)O.N=C(N)c1ccc(N=NNc2ccc(C(=N)N)cc2)cc1 [diminazene aceturate]	–	–	–	–	–	–	–	concentration-dependently causes externalization of ACE2	increases ACE2-mediated binding and signal	dose-dependent reduction in the infectivity of cells expressing WT spike
